Experimental data as given in patent publication US10632211B2, “Demethylation to treat eye disease” (The Regents of the University of California, priority 2018, dated 2020).

Key:
ELOVL2 expression [1] = experiment: ELOVL2 expression by qPCR in mouse retinas after intraocular injection; format: in vivo; conditions: mouse retina, 1 μL of 2 μM intraocular every other week for 2 months from age 10 months, vs PBS eye; qPCR (FIG. 5B)
Experimental: (§1) Finally, it was investigated whether the aging characteristics in mouse eyes could be reverted by DNA demethylation, including the ELOVL2 promoter. To do that, each mouse was injected with 1 μL of 2 μM 5-Aza-dc in one eye and 1 μL of PBS in the other eye, every other week over a period of 2 months starting at age of 10 months. It was found, using the MeDIP method, that methylation of the ELOVL2 promoter decreased after treatment (FIG. 5A).
(§2) DNA and RNA were isolated from human fibroblasts and mouse tissues with TRIzol (Ambion) according to manufacturer's instructions. RNA was converted to cDNA with iScript cDNA Synthesis Kit (Bio-Rad). qPCR was performed using SsoAdvanced Universal SYBR Green Supermix (Bio-Rad).
All animal procedures were conducted with the approval of the Institutional Animal Care Committee at the University of California, San Diego. C57BL/6N mouse zygotes were injected with CRISPR-Cas9 constructs. Oligos were injected into the cytoplasm of the zygotes at the pronuclei stage. Mice were housed on static racks in a conventional animal facility, and were fed ad libitum with Teklad Global 2020X diet. For the 5-Aza-dc injection study, mice were anesthetized by intraperitoneal injection of ketamine/xylazine (100 mg/kg and 10 mg/kg, respectively), and given an analgesic eye drop of Proparacaine (0.5%, Bausch & Lomb). […]

WI-38 cells = experiment: Senescence-associated β-galactosidase staining of 5-Aza-dc treated WI-38 cells; format: cell-based, human; conditions: WI-38 fibroblasts, 2 μM; SA-β-Gal staining (FIG. 2C)
Experimental: (§3) The effect of the ELOVL2 promoter methylation level on ELOVL2 expression was tested. WI-38 fibroblasts were treated with 5-Aza-2′-deoxycytidine (5-Aza-dc), a cytidine analog that inhibits DNA methyltransferase. The cells were treated for 2 days with 2 μM 5-Aza-dc followed by 5 days of culture without the compound. At the end of experiment, the expression of ELOVL2 was measured by qRT-PCR.
WI-38 and IMR-90 human fibroblasts were cultured in EMEM (ATCC) supplemented with 10% fetal bovine serum (Omega) and 1% penicillin/streptomycin (Gibco), and kept in a humidified incubator at 5% CO2 and 37° C. Confluence was calculated via ImageJ imaging software, including 3 fields of view per sample (10×). Upon confluence, cells were split and seeded at a 1:3 ratio. Population doublings (PD) were calculated by cell count. Knockdown lentivirus was generated using MISSION shRNA (Sigma) according to the manufacturer's instructions. […]
The SA-β-gal activity in cultured cells was determined using the Senescence β-Galactosidase Staining Kit (Cell Signaling Technology), according to the manufacturer's instructions. Cells were stained with DAPI afterwards, and percentages of cells that stained positive were calculated with imaging software (Keyence), including 3 fields of view (10×).

ELOVL2 expression [2] = experiment: ELOVL2 expression by qRT-PCR in 5-Aza-dc treated WI-38 cells; format: cell-based, human; conditions: WI-38 fibroblasts, 2 μM for 2 days followed by 5 days without the compound; qRT-PCR vs untreated control (FIG. 2B)
Experimental: as §3
(§4) WI-38 and IMR-90 human fibroblasts were cultured in EMEM (ATCC) supplemented with 10% fetal bovine serum (Omega) and 1% penicillin/streptomycin (Gibco), and kept in a humidified incubator at 5% CO2 and 37° C. Confluence was calculated via ImageJ imaging software, including 3 fields of view per sample (10×). Upon confluence, cells were split and seeded at a 1:3 ratio. Population doublings (PD) were calculated by cell count. Knockdown lentivirus was generated using MISSION shRNA (Sigma) according to the manufacturer's instructions. 5-Aza-2′-deoxycitidine was purchased from TSZ Chem (CAS #2353-33-5), and dissolved in cell culture medium at a concentration of 2 μM. Cells were treated for a period of 48 hours. The medium was then replaced with regular cell culture medium, and the cells were cultured for 5 more days.
(§5) DNA and RNA were isolated from human fibroblasts and mouse tissues with TRIzol (Ambion) according to manufacturer's instructions. […]

patient with dry AMD [3] = experiment: Human clinical use example: clinical assessments (scotopic response, geographic atrophy) after intravitreal decitabine; format: in vivo
Experimental: A person with bilateral, dry age-related macular degeneration (AMD) is seen in an ophthalmology clinic. They are otherwise healthy. They consent to an experimental study comparing demethylation therapy verses control. At baseline both eyes show a similar level of AMD as evidenced by clinical assessments for visual acuity, size of geographic atrophy as measured by autofluorescence, optical coherence tomography, and scotopic response on electroretinography. The patient is treated with 100 uL of decitabine (20 uM) formulated as a sterile, isotonic, pH buffered solution administered by intravitreal injection in their left eye (active treatment). They receive 100 ul of the same sterile, isotonic, pH buffered solution but without decitabine administered by intravitreal injection in their right eye (control treatment). Immediately following the administration of the active and control treatments, a sample of intravitreal fluid is withdrawn from each eye for baseline measurements of ELOVL2 expression and methylation level. It is observed that ELOVL2 is hypermethylated to a similar extent in both eyes. The levels of ELOVL2 expression are also similar and a low level of expression is observed in both eyes. Both the active and control treatments are continued in the left and right eyes respectively with administrations every other week for 3 months. […] Immediately following the last administration, samples of intravitreal fluid are obtained from both eyes for measurement of ELOVL2 gene expression and methylation. The same clinical assessments for geographic atrophy performed at baseline are repeated for each eye. Significant differences are observed between the eye treated with decitabine compared to control. In the decitabine treated eye, ELOVL2 methylation is reduced by almost 30% and ELOVL2 gene expression is increased also by about 30% compared to baseline. Also, the scotopic response is increased by about 30% over baseline. […] In marked contrast, there is no observable change in the control eye in any of the other parameters. Gene methylation and gene expression and scotopic response values remain similar to those observed at baseline values. The patient returns to the clinic for a follow up visit at 6 months. […] Scotopic response in the control eye remains similar to the baseline value.
A person with dry age-related macular degeneration (AMD) with Geographic Atrophy is seen in an ophthalmology clinic. Their vision as assessed by scotopic response is declining. […] They are otherwise healthy. The patient is treated with 100 uL of decitabine (15 uM) formulated as a sterile, isotonic, pH buffered solution administered by intravitreal injection. […] The decitabine treatment is continued with the same dose administered every 5 weeks over a 12 month period. […] Following the last decitabine administration a sample of vitreous fluid is obtained and tested for ELOVL2 gene methylation and ELOVL2 gene expression. The studies reveal ELOVL2 methylation has decreased by almost 60% (from baseline) and ELOVL2 gene expression is increased by about 50% (over the baseline value).

mouse eyes = experiment: Scotopic ERG response in mouse eyes after intraocular injection; format: in vivo; conditions: 1 μL of 2 μM intraocular every other week for 2 months from age 10 months, vs PBS eye (FIG. 5C, FIG. 13)
Experimental: as §1
All animal procedures were conducted with the approval of the Institutional Animal Care Committee at the University of California, San Diego. C57BL/6N mouse zygotes were injected with CRISPR-Cas9 constructs. Oligos were injected into the cytoplasm of the zygotes at the pronuclei stage. Mice were housed on static racks in a conventional animal facility, and were fed ad libitum with Teklad Global 2020X diet. For the 5-Aza-dc injection study, mice were anesthetized by intraperitoneal injection of ketamine/xylazine (100 mg/kg and 10 mg/kg, respectively), and given an analgesic eye drop of Proparacaine (0.5%, Bausch & Lomb). Animals were intraocularly injected with 1 μL of PBS in one eye, and 1 μL of 2 μM 5-Aza-dc dissolved in PBS in the contralateral eye, every other week over a period of 2 months.
Electroretinograms (ERGs) were performed following a previously reported protocol. […]

ELOVL2 promoter [4] = experiment: ELOVL2 promoter methylation by MeDIP followed by qPCR in 5-Aza-dc treated WI-38 cells; format: cell-based, human; conditions: WI-38 fibroblasts, 2 μM for 2 days followed by 5 days of culture without the compound; MeDIP-qPCR vs untreated control (FIG. 2A)
Experimental: as §3, §4, §5

ELOVL2 gene expression = experiment: Human clinical use example: ELOVL2 gene expression in intravitreal fluid after intravitreal decitabine; format: in vivo
Experimental: (§6) A person with bilateral, dry age-related macular degeneration (AMD) is seen in an ophthalmology clinic. They are otherwise healthy. They consent to an experimental study comparing demethylation therapy verses control. At baseline both eyes show a similar level of AMD as evidenced by clinical assessments for visual acuity, size of geographic atrophy as measured by autofluorescence, optical coherence tomography, and scotopic response on electroretinography. The patient is treated with 100 uL of decitabine (20 uM) formulated as a sterile, isotonic, pH buffered solution administered by intravitreal injection in their left eye (active treatment). They receive 100 ul of the same sterile, isotonic, pH buffered solution but without decitabine administered by intravitreal injection in their right eye (control treatment). Immediately following the administration of the active and control treatments, a sample of intravitreal fluid is withdrawn from each eye for baseline measurements of ELOVL2 expression and methylation level. It is observed that ELOVL2 is hypermethylated to a similar extent in both eyes. The levels of ELOVL2 expression are also similar and a low level of expression is observed in both eyes. […]
(§7) A person with dry age-related macular degeneration (AMD) with Geographic Atrophy is seen in an ophthalmology clinic. Their vision as assessed by scotopic response is declining. […]

ELOVL2 methylation = experiment: Human clinical use example: ELOVL2 methylation in intravitreal fluid after intravitreal decitabine; format: in vivo
Experimental: as §6, §7

patient with dry AMD [5] = experiment: Human clinical use example: tolerability of intravitreal decitabine; format: in vivo
Experimental: as §6, §7

ELOVL2 promoter [6] = experiment: ELOVL2 methylation by MeDIP in mouse retinas after intraocular injection; format: in vivo; conditions: mouse retina, 1 μL of 2 μM intraocular every other week for 2 months from age 10 months, vs PBS eye; MeDIP (FIG. 5A)
Experimental: as §1, §2
Methylated DNA Immunoprecipitation (MeDIP) was performed by shearing 1 μg DNA by Bioruptor (Diagenode) for 8 cycles on the high setting, each cycle consisting of 30 seconds on and 30 seconds off. Sheared DNA was denatured, incubated with 1 μg 5 mC antibody MABE146 (Millipore) for 2 hours, then with SureBeads protein G beads (Bio-Rad) for 1 hour. After washing, DNA was purified with QIAquick PCR Purification Kit (Qiagen). qPCR was then performed as above.
All animal procedures were conducted with the approval of the Institutional Animal Care Committee at the University of California, San Diego. C57BL/6N mouse zygotes were injected with CRISPR-Cas9 constructs. […]

[7] = Geographic Atrophy patient, 100 uL of 15 uM intravitreal every 5 weeks over 12 months
[8] = dry AMD patient, 100 uL of 20 uM intravitreal every other week for 3 months

scotopic response (ERG) (mouse eyes): improved
Structure (SMILES): Nc1ncn([C@H]2C[C@H](O)[C@@H](CO)O2)c(=O)n1 [5-Aza-dc, 5-Aza-2′-deoxycytidine]
ELOVL2 expression (ELOVL2 expression [1]): upregulated | percentage of senescent cells in culture (WI-38 cells): lower percentage of senescent cells | ELOVL2 expression (ELOVL2 expression [2]): upregulated | geographic atrophy growth by fundus autofluorescence (patient with dry AMD [3]; [7]): no geographic atrophy growth | scotopic response increased over baseline (patient with dry AMD [3]; [7]): about 30% | scotopic response improvement over baseline (patient with dry AMD [3]; dry AMD patient, 20 uM bi-weekly for 3 months, follow up visit at 6 months): 20%-30% | growth of geographic atrophy by fundus autofluorescence compared to baseline (patient with dry AMD [3]; [8]): no progression | scotopic response increased over baseline (patient with dry AMD [3]; dry AMD patient, 100 uL of 20 uM intravitreal every other week for 3 months, after last administration): about 30% | ELOVL2 promoter methylation (ELOVL2 promoter [4]): reduced | ELOVL2 gene expression increased over the baseline value (ELOVL2 gene expression; [7]): about 50% | ELOVL2 gene expression increased compared to baseline (ELOVL2 gene expression; [8]): about 30% | ELOVL2 methylation decreased from baseline (ELOVL2 methylation; [7]): ~60% | ELOVL2 methylation reduced compared to baseline (ELOVL2 methylation; [8]): about 30% | tolerability (patient with dry AMD [5]; [7]): well tolerated with no adverse effects observed | tolerability (patient with dry AMD [5]; [8]): equally well tolerated | methylation of the ELOVL2 promoter (ELOVL2 promoter [6]): decreased
